ChEMBL document CHEMBL1275409, “Antimicrobial-resistant pathogens in intensive care units in Canada: results of the Canadian National Intensive Care Unit (CAN-ICU) study, 2005-2006” (2008)

Legend:
Assay type in all cases: functional
Staphylococcus aureus [1] = test: Antimicrobial activity against methicillin-resistant Staphylococcus aureus isolated from ICU patient respiratory tract assessed as resistant isolates by broth microdilution method
Staphylococcus aureus [2] = test: Antimicrobial activity against methicillin-resistant Staphylococcus aureus isolated from ICU patient wound assessed as resistant isolates by broth microdilution method
Staphylococcus aureus [3] = test: Antimicrobial activity against methicillin-resistant Staphylococcus aureus isolated from ICU patient urine assessed as resistant isolates by broth microdilution method
Staphylococcus aureus [4] = test: Antimicrobial activity against methicillin-resistant Staphylococcus aureus isolated from ICU patient blood assessed as resistant isolates by broth microdilution method
Staphylococcus aureus [5] = test: Antimicrobial activity against methicillin-resistant Staphylococcus aureus assessed as resistant isolates by broth microdilution method
Staphylococcus aureus [6] = test: Antimicrobial activity against methicillin-susceptible Staphylococcus aureus isolated from ICU patient respiratory tract assessed as resistant isolates by broth microdilution method
Staphylococcus aureus [7] = test: Antimicrobial activity against methicillin-susceptible Staphylococcus aureus isolated from ICU patient wound assessed as resistant isolates by broth microdilution method
Staphylococcus aureus [8] = test: Antimicrobial activity against methicillin-susceptible Staphylococcus aureus isolated from ICU patient urine assessed as resistant isolates by broth microdilution method
Staphylococcus aureus [9] = test: Antimicrobial activity against methicillin-susceptible Staphylococcus aureus isolated from ICU patient blood assessed as resistant isolates by broth microdilution method
Staphylococcus aureus [10] = test: Antimicrobial activity against methicillin-susceptible Staphylococcus aureus assessed as resistant isolates by broth microdilution method
Enterobacter cloacae [11] = test: Antimicrobial activity against carbapenem-resistant Enterobacter cloacae isolated from ICU patient respiratory tract assessed as resistant isolates by broth microdilution method
Haemophilus influenzae [12] = test: Antimicrobial activity against Haemophilus influenzae assessed as resistant isolates by broth microdilution method
Haemophilus influenzae [13] = test: Antimicrobial activity against Haemophilus influenzae isolated from ICU patient blood assessed as resistant isolates by broth microdilution method
Haemophilus influenzae [14] = test: Antimicrobial activity against Haemophilus influenzae isolated from ICU patient wound assessed as resistant isolates by broth microdilution method
Haemophilus influenzae [15] = test: Antimicrobial activity against Haemophilus influenzae isolated from ICU patient respiratory tract assessed as resistant isolates by broth microdilution method
Enterobacter cloacae [16] = test: Antimicrobial activity against carbapenem-resistant Enterobacter cloacae isolated from ICU patient wound assessed as resistant isolates by broth microdilution method
Enterobacter cloacae [17] = test: Antimicrobial activity against carbapenem-resistant Enterobacter cloacae isolated from ICU patient urine assessed as resistant isolates by broth microdilution method
Enterobacter cloacae [18] = test: Antimicrobial activity against carbapenem-resistant Enterobacter cloacae isolated from ICU patient blood assessed as resistant isolates by broth microdilution method
Enterobacter cloacae [19] = test: Antimicrobial activity against carbapenem-resistant Enterobacter cloacae assessed as resistant isolates by broth microdilution method
Pseudomonas aeruginosa [20] = test: Antimicrobial activity against carbapenem-resistant Pseudomonas aeruginosa isolated from ICU patient respiratory tract assessed as resistant isolates by broth microdilution method
Pseudomonas aeruginosa [21] = test: Antimicrobial activity against carbapenem-resistant Pseudomonas aeruginosa isolated from ICU patient wound assessed as resistant isolates by broth microdilution method
Pseudomonas aeruginosa [22] = test: Antimicrobial activity against carbapenem-resistant Pseudomonas aeruginosa isolated from ICU patient urine assessed as resistant isolates by broth microdilution method
Pseudomonas aeruginosa [23] = test: Antimicrobial activity against carbapenem-resistant Pseudomonas aeruginosa isolated from ICU patient blood assessed as resistant isolates by broth microdilution method
Pseudomonas aeruginosa [24] = test: Antimicrobial activity against carbapenem-resistant Pseudomonas aeruginosa assessed as resistant isolates by broth microdilution method
Klebsiella pneumoniae [25] = test: Antimicrobial activity against ESBL producing Klebsiella pneumoniae isolated from ICU patient respiratory tract assessed as resistant isolates by broth microdilution method
Klebsiella pneumoniae [26] = test: Antimicrobial activity against ESBL producing Klebsiella pneumoniae isolated from ICU patient wound assessed as resistant isolates by broth microdilution method
Klebsiella pneumoniae [27] = test: Antimicrobial activity against ESBL producing Klebsiella pneumoniae isolated from ICU patient urine assessed as resistant isolates by broth microdilution method
Klebsiella pneumoniae [28] = test: Antimicrobial activity against ESBL producing Klebsiella pneumoniae isolated from ICU patient blood assessed as resistant isolates by broth microdilution method
Klebsiella pneumoniae [29] = test: Antimicrobial activity against ESBL producing Klebsiella pneumoniae assessed as resistant isolates by broth microdilution method
Escherichia coli [30] = test: Antimicrobial activity against CTX-M ESBL producing Escherichia coli isolated from ICU patient respiratory tract assessed as resistant isolates by broth microdilution method
Escherichia coli [31] = test: Antimicrobial activity against CTX-M ESBL producing Escherichia coli isolated from ICU patient wound assessed as resistant isolates by broth microdilution method
Escherichia coli [32] = test: Antimicrobial activity against CTX-M ESBL producing Escherichia coli isolated from ICU patient urine assessed as resistant isolates by broth microdilution method
Escherichia coli [33] = test: Antimicrobial activity against CTX-M ESBL producing Escherichia coli isolated from ICU patient blood assessed as resistant isolates by broth microdilution method
Escherichia coli [34] = test: Antimicrobial activity against CTX-M ESBL producing Escherichia coli assessed as resistant isolates by broth microdilution method
Streptococcus pneumoniae [35] = test: Antimicrobial activity against penicillin-resistant Streptococcus pneumoniae isolated from ICU patient respiratory tract assessed as resistant isolates by broth microdilution method
Streptococcus pneumoniae [36] = test: Antimicrobial activity against penicillin-resistant Streptococcus pneumoniae isolated from ICU patient wound assessed as resistant isolates by broth microdilution method
Streptococcus pneumoniae [37] = test: Antimicrobial activity against penicillin-resistant Streptococcus pneumoniae isolated from ICU patient blood assessed as resistant isolates by broth microdilution method
Streptococcus pneumoniae [38] = test: Antimicrobial activity against penicillin-resistant Streptococcus pneumoniae assessed as resistant isolates by broth microdilution method
[39] = test system: Staphylococcus epidermidis; test: Antimicrobial activity against methicillin-resistant Staphylococcus epidermidis isolated from ICU patient wound assessed as resistant isolates by broth microdilution method
[40] = test system: Staphylococcus epidermidis; test: Antimicrobial activity against methicillin-resistant Staphylococcus epidermidis isolated from ICU patient urine assessed as resistant isolates by broth microdilution method
[41] = test system: Staphylococcus epidermidis; test: Antimicrobial activity against methicillin-resistant Staphylococcus epidermidis isolated from ICU patient blood assessed as resistant isolates by broth microdilution method
[42] = test system: Staphylococcus epidermidis; test: Antimicrobial activity against methicillin-resistant Staphylococcus epidermidis assessed as resistant isolates by broth microdilution method
[43] = test system: Staphylococcus epidermidis; test: Antimicrobial activity against methicillin-susceptible Staphylococcus epidermidis isolated from ICU patient respiratory tract assessed as resistant isolates by broth microdilution method
[44] = test system: Staphylococcus epidermidis; test: Antimicrobial activity against methicillin-susceptible Staphylococcus epidermidis isolated from ICU patient wound assessed as resistant isolates by broth microdilution method
[45] = test system: Staphylococcus epidermidis; test: Antimicrobial activity against methicillin-susceptible Staphylococcus epidermidis isolated from ICU patient urine assessed as resistant isolates by broth microdilution method
[46] = test system: Staphylococcus epidermidis; test: Antimicrobial activity against methicillin-susceptible Staphylococcus epidermidis isolated from ICU patient blood assessed as resistant isolates by broth microdilution method
[47] = test system: Staphylococcus epidermidis; test: Antimicrobial activity against methicillin-susceptible Staphylococcus epidermidis assessed as resistant isolates by broth microdilution method
Enterococcus sp. [48] = test: Antimicrobial activity against vancomycin-resistant Enterococcus sp. isolated from ICU patient respiratory tract assessed as resistant isolates by broth microdilution method
Enterococcus sp. [49] = test: Antimicrobial activity against vancomycin-resistant Enterococcus sp. isolated from ICU patient wound assessed as resistant isolates by broth microdilution method
Enterococcus sp. [50] = test: Antimicrobial activity against vancomycin-resistant Enterococcus sp. isolated from ICU patient urine assessed as resistant isolates by broth microdilution method
Enterococcus sp. [51] = test: Antimicrobial activity against vancomycin-resistant Enterococcus sp. assessed as resistant isolates by broth microdilution method
Enterococcus sp. [52] = test: Antimicrobial activity against vancomycin-resistant Enterococcus sp. isolated from ICU patient blood assessed as resistant isolates by broth microdilution method

Compound `CO/N=C(\C(=O)N[C@@H]1C(=O)N2C(C(=O)O)=C(CSc3nc(=O)c(O)nn3C)CS[C@H]12)c1csc(N)n1` [CEFTRIAXONE] has an Activity (Staphylococcus aureus [1]) of 100%, an Activity (Staphylococcus aureus [2]) of 100% and an Activity (Staphylococcus aureus [3]) of 100%. For the same compound, the Activity (Staphylococcus aureus [4]) was 100%, the Activity (Staphylococcus aureus [5]) was 100% and the Activity (Staphylococcus aureus [6]) was 0%. It also gave an Activity (Staphylococcus aureus [7]) of 0%, an Activity (Staphylococcus aureus [8]) of 0% and an Activity (Staphylococcus aureus [9]) of 0%. For the same compound, the Activity (Staphylococcus aureus [10]) was 0%, the Activity (Enterobacter cloacae [11]) was 10.2% and the Activity (Haemophilus influenzae [12]) was 0.3%. It also gave an Activity (Haemophilus influenzae [13]) of 0%, an Activity (Haemophilus influenzae [14]) of 0% and an Activity (Haemophilus influenzae [15]) of 0.3%. The Activity (Enterobacter cloacae [16]) was 5.9%, the Activity (Enterobacter cloacae [17]) was 25% and the Activity (Enterobacter cloacae [18]) was 29.2%. For the same compound, the Activity (Enterobacter cloacae [19]) was 13.9%, the Activity (Pseudomonas aeruginosa [20]) was 27% and the Activity (Pseudomonas aeruginosa [21]) was 30.2%. It also gave an Activity (Pseudomonas aeruginosa [22]) of 33.3%, an Activity (Pseudomonas aeruginosa [23]) of 51.5% and an Activity (Pseudomonas aeruginosa [24]) of 30%. It also gave an Activity (Klebsiella pneumoniae [25]) of 0%, an Activity (Klebsiella pneumoniae [26]) of 3.9% and an Activity (Klebsiella pneumoniae [27]) of 0%. It also gave an Activity (Klebsiella pneumoniae [28]) of 0%, an Activity (Klebsiella pneumoniae [29]) of 0.4% and an Activity (Escherichia coli [30]) of 2.5%. For the same compound, the Activity (Escherichia coli [31]) was 1.7%, the Activity (Escherichia coli [32]) was 4.2% and the Activity (Escherichia coli [33]) was 5.5%. The Activity (Escherichia coli [34]) was 3.7%, the Activity (Streptococcus pneumoniae [35]) was 0% and the Activity (Streptococcus pneumoniae [36]) was 0%. The Activity (Streptococcus pneumoniae [37]) was 0%, the Activity (Streptococcus pneumoniae [38]) was 0% and the Activity [39] was 100%. For the same compound, the Activity [40] was 100%, the Activity [41] was 100% and the Activity [42] was 100%. It also gave an Activity [43] of 0%, an Activity [44] of 25% and an Activity [45] of 0%. For the same compound, the Activity [46] was 1.8% and the Activity [47] was 8.1%.
With `O=C(O)c1cn(C2CC2)c2cc(N3CCNCC3)c(F)cc2c1=O` [CIPROFLOXACIN] the Activity (Staphylococcus aureus [2]) was 92.6%, the Activity (Staphylococcus aureus [3]) was 100% and the Activity (Staphylococcus aureus [6]) was 7.5%. For the same compound, the Activity (Staphylococcus aureus [7]) was 8%, the Activity (Staphylococcus aureus [8]) was 20% and the Activity (Staphylococcus aureus [9]) was 6.9%. The Activity (Haemophilus influenzae [12]) was 0%, the Activity (Haemophilus influenzae [13]) was 0% and the Activity (Haemophilus influenzae [14]) was 0%. It also gave an Activity (Haemophilus influenzae [15]) of 0%, an Activity (Pseudomonas aeruginosa [20]) of 4.1% and an Activity (Pseudomonas aeruginosa [21]) of 11.5%. The Activity (Pseudomonas aeruginosa [22]) was 0%, the Activity (Pseudomonas aeruginosa [23]) was 3.9% and the Activity (Pseudomonas aeruginosa [24]) was 4%. It also gave an Activity (Klebsiella pneumoniae [25]) of 20.8%, an Activity (Klebsiella pneumoniae [26]) of 28.3% and an Activity (Klebsiella pneumoniae [27]) of 37.8%. For the same compound, the Activity (Klebsiella pneumoniae [28]) was 24.2%, the Activity (Klebsiella pneumoniae [29]) was 23.8% and the Activity (Escherichia coli [30]) was 21.3%. It also gave an Activity (Escherichia coli [31]) of 24.1%, an Activity (Escherichia coli [32]) of 19.8% and an Activity (Escherichia coli [33]) of 23.3%. It also gave an Activity (Escherichia coli [34]) of 21.1%, an Activity (Enterococcus sp. [48]) of 46.7% and an Activity (Enterococcus sp. [49]) of 50%. The Activity (Enterococcus sp. [50]) was 54.7%, the Activity (Enterococcus sp. [51]) was 53.4% and the Activity (Enterococcus sp. [52]) was 58.1%. It also gave an Activity (Streptococcus pneumoniae [35]) of 2.6%, an Activity (Streptococcus pneumoniae [36]) of 0% and an Activity (Streptococcus pneumoniae [37]) of 0%. It also gave an Activity (Streptococcus pneumoniae [38]) of 2.1%, an Activity [39] of 100% and an Activity [40] of 100%. For the same compound, the Activity [41] was 100%, the Activity [42] was 100% and the Activity [43] was 100%. It also gave an Activity [44] of 70.8%, an Activity [45] of 80% and an Activity [46] of 44.6%. The Activity [47] was 54.7%.
